The record followed here is patent US7419780B2, “Methods and assays for screening protein targets” (The Trustees of Columbia University in the City of New York, priority 2000, dated 2008).

Type in all cases: cell-based, S. cerevisiae
What all share (conditions): 1 uM small molecule, difference to activity without small molecule, average of two trials

The target in test [1] is T1, LexA eDHFR / B42 (GSG)rGR2 (UniProt P06536+P0ABQ4, C656G/F620S).
T1 construct: rat Glucocorticoid Receptor (aa 524-795) with point mutations; expressed in transfected cells; host or cells: S. cerevisiae FY250
T1 sequence (P0ABQ4 1-159): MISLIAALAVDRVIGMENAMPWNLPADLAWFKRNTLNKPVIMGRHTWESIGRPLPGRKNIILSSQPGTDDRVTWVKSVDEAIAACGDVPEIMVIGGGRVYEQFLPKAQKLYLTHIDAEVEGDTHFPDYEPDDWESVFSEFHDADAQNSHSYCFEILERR
T1 sequence (P06536 524-795 F620S/C656G limits assumed): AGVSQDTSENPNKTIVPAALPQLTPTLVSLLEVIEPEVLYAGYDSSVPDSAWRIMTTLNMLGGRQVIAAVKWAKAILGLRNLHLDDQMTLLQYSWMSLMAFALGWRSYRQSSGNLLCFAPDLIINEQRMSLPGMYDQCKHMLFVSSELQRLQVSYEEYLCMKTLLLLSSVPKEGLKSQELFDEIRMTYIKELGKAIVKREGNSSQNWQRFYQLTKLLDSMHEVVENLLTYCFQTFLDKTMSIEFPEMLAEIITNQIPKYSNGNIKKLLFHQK
As to the kind of experiment: β-galactosidase activity assay, strain V494Y. The text has this:
(§1) Table III explains the components of each strain. Each strain was constructed from the parent yeast strain FY250 and also contains the pMW106 plasmid, which has the LacZ reporter gene that is turned on only in when the LexA DNA binding domain and the B42 activation are brought in tot he vicinity of each other. We use several different strains because we use DHFR from two different species, mDHFR is from murine, while eDHFR is from E. coli. We are asl oable to switch the small moleculebinding domains. For example, the strain containing LexA-eDHFR with B42-rGH2 is a different strain and behaves differently from the strain containing LexA-rGR2 with B42-eDHFR. We also put in short 6 amino acid linkers between the two domains of our protein chimeras and thus these are different strain as well.
(§2) The results in Table IV are averages of two separate trials. Each strain was examined with small molecules and without small molecules. The absolute activity is given as the β-galactisidase activity […]. The average β-galactosidse activity for a strain without small molecule (i.e. the negative control) was about 100 β-galactosidase units.

For test [2], the target named is T2, LexA mDHFR / B42 (GSG)rGR2 (UniProt P00375+P06536, C656G/F620S).
T2 construct: rat Glucocorticoid Receptor (aa 524-795) with point mutations; expressed in transfected cells; host or cells: S. cerevisiae FY250
T2 sequence (P00375 1-187): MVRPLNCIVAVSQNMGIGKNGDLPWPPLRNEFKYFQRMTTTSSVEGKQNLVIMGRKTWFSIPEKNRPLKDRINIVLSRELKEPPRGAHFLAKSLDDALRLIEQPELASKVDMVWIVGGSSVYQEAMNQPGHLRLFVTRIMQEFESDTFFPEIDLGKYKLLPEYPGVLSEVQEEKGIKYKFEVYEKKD
T2 sequence (P06536 524-795 F620S/C656G limits assumed): T1 sequence (P06536 524-795 F620S/C656G limits assumed)
As to the kind of experiment: β-galactosidase activity assay, strain V497Y.
Text: as §1, §2

Test [3] addresses T3, LexA (GSG)2mDHFR / B42 rGR2 (UniProt P00375+P06536, C656G/F620S).
T3 construct: rat Glucocorticoid Receptor (aa 524-795) with point mutations; expressed in transfected cells; host or cells: S. cerevisiae FY250
T3 sequence (P00375 1-187): T2 sequence (P00375 1-187)
T3 sequence (P06536 524-795 F620S/C656G limits assumed): T1 sequence (P06536 524-795 F620S/C656G limits assumed)
Briefly: β-galactosidase activity assay, strain V502Y.
Text: as §1, §2

In test [4] the target is T4, LexA (GSG)2rGR2 / B42 (GSG)2mDHFR (UniProt P00375+P06536, C656G/F620S).
T4 construct: rat Glucocorticoid Receptor (aa 524-795) with point mutations; expressed in transfected cells; host or cells: S. cerevisiae FY250
T4 sequence (P06536 524-795 F620S/C656G limits assumed): T1 sequence (P06536 524-795 F620S/C656G limits assumed)
T4 sequence (P00375 1-187): T2 sequence (P00375 1-187)
Briefly: β-galactosidase activity assay, strain V512Y.
Text: as §1, §2

In test [5] the target is T5, LexA (GSG)2rGR2 / B42 mDHFR (UniProt P00375+P06536, C656G/F620S).
T5 construct: expressed in transfected cells; host or cells: S. cerevisiae FY250 with pMW106 lacZ reporter
T5 sequence (P06536 524-795 F620S/C656G limits assumed): T1 sequence (P06536 524-795 F620S/C656G limits assumed)
T5 sequence (P00375 1-187): T2 sequence (P00375 1-187)
As to the kind of experiment: β-galactosidase activity assay, strain V508Y.
Text: as §1, §2

In test [6] the target is T6, LexA rGR2 / B42 (GSG)2mDHFR (UniProt P00375+P06536, C656G/F620S).
T6 construct: expressed in transfected cells; host or cells: S. cerevisiae FY250 with pMW106 lacZ reporter
T6 sequence (P06536 524-795 F620S/C656G limits assumed): T1 sequence (P06536 524-795 F620S/C656G limits assumed)
T6 sequence (P00375 1-187): T2 sequence (P00375 1-187)
Briefly: β-galactosidase activity assay, strain V511Y.
Text: as §1, §2

Another test concerns the target T7, LexA eDHFR / B42 rGR2 (UniProt P06536+P0ABQ4, C656G/F620S).
T7 construct: rat Glucocorticoid Receptor (aa 524-795) with point mutations; expressed in transfected cells; host or cells: S. cerevisiae FY250
T7 sequence (P0ABQ4 1-159): T1 sequence (P0ABQ4 1-159)
T7 sequence (P06536 524-795 F620S/C656G limits assumed): T1 sequence (P06536 524-795 F620S/C656G limits assumed)
As to the kind of experiment: β-galactosidase activity assay, strain V493Y.
Text: as §1, §2

Test [7] deals with T8, LexA (GSG)2mDHFR / B42 gly6rGR2 (UniProt P00375+P06536, C656G/F620S).
T8 construct: expressed in transfected cells; host or cells: S. cerevisiae FY250 with pMW106 lacZ reporter
T8 sequence (P00375 1-187): T2 sequence (P00375 1-187)
T8 sequence (P06536 524-795 F620S/C656G limits assumed): T1 sequence (P06536 524-795 F620S/C656G limits assumed)
As to the kind of experiment: β-galactosidase activity assay, strain V503Y.
Text: as §1, §2

In test [8] the target is T9, LexA (GSG)2eDHFR / B42 rGR2 (UniProt P06536+P0ABQ4, C656G/F620S).
T9 construct: rat Glucocorticoid Receptor (aa 524-795) with point mutations; expressed in transfected cells; host or cells: S. cerevisiae FY250
T9 sequence (P0ABQ4 1-159): T1 sequence (P0ABQ4 1-159)
T9 sequence (P06536 524-795 F620S/C656G limits assumed): T1 sequence (P06536 524-795 F620S/C656G limits assumed)
Briefly: β-galactosidase activity assay, strain V498Y.
Text: as §1, §2

Test [9] concerns the target T10, LexA (GSG)2eDHFR / B42 (GSG)rGR2 (UniProt P06536+P0ABQ4, C656G/F620S).
T10 construct: rat Glucocorticoid Receptor (aa 524-795) with point mutations; expressed in transfected cells; host or cells: S. cerevisiae FY250
T10 sequence (P0ABQ4 1-159): T1 sequence (P0ABQ4 1-159)
T10 sequence (P06536 524-795 F620S/C656G limits assumed): T1 sequence (P06536 524-795 F620S/C656G limits assumed)
Briefly: β-galactosidase activity assay, strain V501Y.
Text: as §1, §2

For `C[C@@H]1C[C@H]2C3CCC4=CC(=O)C=C[C@]4(C)[C@@]3(F)[C@@H](O)C[C@]2(C)[C@@]1(O)C(=O)NCCSCCCCCCCCSCC[C@H](NC(=O)c1ccc(N(C)Cc2cnc3nc(N)nc(N)c3n2)cc1)C(=O)O` (stereo partly shown) [D8M], the B-gal activity in test [1] is on record as 10568 β-galactosidase units; in [2] it was 24 β-galactosidase units; in [3] it was 30 β-galactosidase units; in test [4], −4 β-galactosidase units; in test [5], −5 β-galactosidase units; in test [6] it was −129 β-galactosidase units. Besides, the B-gal activity was 5555 β-galactosidase units at LexA eDHFR / B42 rGR2, 45 β-galactosidase units in [7], 5442 β-galactosidase units in test [8] and 6660 β-galactosidase units in test [9].
